The values that follow come from US20240373849A1, “INSECT NEUROPEPTIDE ANALOGUES” (THE UNIVERSITY COURT OF THE UNIVERSITY OF GLASGOW, priority 2020, published 2024).

“And” between values parts separate entries of the source, which are not always exact repeats. Equal entries are not always repeated. Square brackets hold non-standard residues; d marks the D form. NMeA = CN[C@@H](C)C(=O)O; Aib = CC(C)(N)C(=O)O

One series concerns D. suzukii larvae. Put plainly: Drosophila suzukii larval feeding (Example 9; dose response). Format: in vivo. The note with it: for % Lethality ± SEM: Table 6, 10^−5 M, 48 hr and/or 72 h exposure (FIG. 7: AH270/PEGAH270 120 h). The protocol: Dose response experiments were carried out for AH382, AH383, AH188, data shown for AH382 (a), AH383 (b), AH188 (c, 48 hours). Data are mean % lethality ±SEM for concentrations between 10^−4 M and 10^−7 M (a) AH382, (b) AH383 72 hours treatment; and between 10^−5 M and 10^−9 M (AH188, 3c), 48 hours treatment. The LD50 for AH382, AH383 and AH188 is 10^−6 M.
Further larval feeding assays with D. suzukii larvae were conducted as explained above in example 7. A total of 88 peptides were tested against D. suzukii larvae in 96 well plates at 10^−5 M in a final volume of 200 μl of 0.8% agarose containing 0.09% m-Cresol purple pH marker dye (Sigma) and 5% sucrose (Sigma). Controls contained dH2O (18% lethality) or native Capa-2 peptide (38% lethality) as a ‘sham’ treatment. Each peptide was assayed with a minimum of 7 to maximum 9 late L2/early L3 larvae per well, minimum n=8 wells per peptide concentration (minimum 56 larvae) and a minimum n=12 control wells (minimum 84 larvae) per plate. Larvae were assayed for lethality after 48 hr and/or 72 h exposure at 21° C. using a binocular stereomicroscope and findings recorded. Candidate peptides were also tested between 10^-4 and 10^-7 M (dose response curve).
Candidate peptides for D. suzukii with 70%-90% lethality are indicated below, in Table 6.

For series [1], the system named is M. persicae. Put plainly: Feeding of aphids with peptides in artificial diet (Example 1). The class given is in vivo, Myzus persicae. The protocol: A standard artificial diet for M. persicae was produced as described in Van Emden (2009) and provided the basal diet to which peptides were added for screening purposes. Peptides were diluted individually in the artificial diet to a pre-determined concentration.
Feeding apparatus were constructed using a set-up developed by Sadeghi et al (2009). For this, a piece of Parafilm was stretched over a Plexiglas ring (h=4 cm, Ø=3 cm) and 100 μl of the artificial diet containing the desired neuropeptide analogue was pipette onto the Parafilm membrane. A second piece of Parafilm, stretched to 4 times the original thickness, was stretched over the original layer, sandwiching the artificial diet between two layers of Parafilm. A strip of Parafilm was wrapped around the circumference of the Plexiglas ring, sealing in the diet. A plastic ring (h=1.2 cm, Ø=3.4 cm) was subsequently placed over the Parafilm layer, creating a walled chamber in which to house test aphids in contact with the Parafilm layer containing the artificial diet. Finally, a small Petri dish (h=1 cm, Ø=3.6 cm), modified for ventilation with net cloth, was placed on top of each feeding apparatus to prevent aphid escape.
To obtain aphids for use in experiments, reproducing anholocyclic adults were placed on individual excised leaves of Chinese cabbage at densities of 5 adults per leaf and allowed to reproduce for 24 h. The stem of each excised leaf was held within a 0.5 mL Eppendorf tube containing water via a punctured hole in the Eppendorf lid, and placed individually within a microcage (L=4 cm, Ø=9.5 cm). Following 24h, adults were removed and resultant first instar nymphs (<1 day old and synchronised in age to within 24h) retained. Nymphs were allowed to develop on the Chinese cabbage for 5 days. On day 5, (3rd instar) nymphs were transferred onto the artificial diet containing a neuropeptide analogue at densities of 1 per feeding chamber and monitored daily until death. Aphids were transferred to fresh artificial diet (containing neuropeptide analogue or water control) every 5 days.
The water control group was used to determine baseline lethality. Results for neuropeptide analogues were calculated as % lethality in the remaining population after adjustment for the baseline.

Another series has as its system Myzus persicae aphids. Put plainly: Topical application by spraying, Potter Spray Tower (Example 3). The note with it: 48 hours post spray. Format: in vivo. The protocol: Aphids were exposed to test peptides in the absence of additional external stress conditions.
Brassica rapa (Chinese cabbage; Wong Bok) were infested with 30 adult Myzus persicae aphids per plant. Aphids were left at least 2 hours to settle and begin feeding from the host plant.
Potter Spray Tower (Burkard Manufacturing) was ‘primed’ by spraying 1000 μl of liquid coating the inside of the tower. Vehicle spray only (Croda ATPlus UEP 100 LQ-(CQ) 0.1% v/v) was used as a control.
Spray volumes for all solutions were 3000 μl. […] After spraying was completed the plant was allowed to rest on the spray platform for 30 seconds to allow settling of the sprayed chemical.
Post peptide application, each condition was placed into its own individual Bugdorm (Watkins and Doncaster, 44545), to prevent repulsed or displaced aphids moving from one condition to another. Numbers of alive and dead aphids on the plant were counted 48 hours post spray, and the presence of any fresh nymphs noted. Plants were watered prior to spraying but not afterwards to eliminate the possibility of drowning any aphids present or washing off the sprayed liquid.
The vehicle control group was used to determine baseline lethality. Results for neuropeptide analogues were calculated as % lethality in the remaining population after adjustment for the baseline.

Series [2] concerns M. persicae. Kind of series: Feeding of aphids with peptides in artificial diet (Example 2; peptide screening, honeydew). The class given is in vivo, Myzus persicae. The settings on record: for mean lethality / lethality observed in one sample of 30 insects: M. persicae feeding, 10^−5 M, 120 hours; for lethality observed in one sample of 30 insects: single sample. From the text: (§1) First to Fourth generations of peptides were produced with varying structures and tested for CAPA receptor agonist activity, and screened for lethality in vivo against D. suzukii and M. persicae as per methods in example 2 and example 8. The top performing peptides were selected and gave rise to the list of CAPA1 and CAPA2 peptides provided above in Table 1 which were then further tested in the following applied examples.
The aphid feeding protocol was devised according to Sadeghi et al (2009) as explained in example 1. Feeding discs were designed and manufactured as above. A standard sucrose-based artificial diet for M. persicae (30 aphids per chamber, 3 chambers per experiment unless otherwise stated) was produced as described in example 1 (Sadeghi et al, J. Insect Science, 2009) and provided the basal diet to which peptides were added for screening purposes. Peptides were diluted individually in the artificial diet to 10^−5 M. Lethality was scored after up to 120 hours (IRAC guidelines for aphid testing).
Membrane discs were also included to collect ‘honeydew’ secreted by feeding aphids and stained with ninhydrin to observe feeding patterns.
Comparison of purple stain in controls to treated aphids, show there is very little colour on many membranes where peptides were added.
Capa peptides cause mortality in M. persicae via feeding: At 120 hours, AH383 and AH387 peptides induce ˜60% mean (and median) lethality. Although mean lethality is lower with AH270/PEGAH270 (40%), 100% lethality is observed in one sample of 30 insects (AH270); and 90% in at least one sample of each of AH383, AH387 and PEGAH270 (FIG. 3). Note that PEGAH270 is a pegylated form of peptide AH270.

In series [3] the test system is Drosophila suzukii larvae. Kind of series: Drosophila suzukii larval feeding (Example 8; peptide screening). The class given is in vivo. Also on record: key to D. suzukii (Sig Diff Grp): A indicates a significant difference in survival compared with control (blank).; B indicates a significant difference in survival compared with scrambled capa1.; C indicates a significant difference in survival compared with scrambled capa2. The note with it: for Feeding D. suzukii, % lethality in population after adjustment for baseline: 10^−5 M, 48 hr exposure. The protocol:
as §1
Peptides were tested at concentrations ranging from [10^−4 M] to [10^−7 M] in a final volume of 200 μl of 0.8% agarose containing 0.09% m-Cresol purple pH marker dye (Sigma) and 5% sucrose (Sigma).
Agarose was melted in dH2O, before addition of sucrose and dye. The agarose/dye solution was then allowed to cool to 60° C. 96 well plates (flat-bottomed 3596 TC-plates; Corning) containing 20 μl volumes of neuropeptide per well were prepared, and 180 μl agarose/dye solution dispensed into each well via a Distriman repetitive micro-pipettor (Gilson). Controls contained 20 μl dH2O as a ‘sham’ treatment with 180 μl of the 0.8% agarose/dye solution. Plates were agitated at 800 rpm, to ensure mixing, at 60° C. (Eppendorf Thermomixer C). Plates were then allowed to cool, and agarose/dye solution solidify, prior to use.
Each peptide was assayed with a minimum of 7 to maximum 9 late L2/early L3 Spotted wing Drosophila, Drosophila suzukii, (feeding) larvae per well, minimum n=8 wells per peptide concentration and a minimum n=12 control wells per plate. The selected larvae were first washed 2× in ice cold Drosophila Schneider's liquid medium (ThermoFisher) before insertion into wells to remove extraneous food. After complete insertion of all larvae the plates were covered with breathable sealing membrane for multi-well plates (Sigma).
Larvae were assayed for lethality after 48 hr exposure at 21° C. and findings recorded. During examination the assay plate was kept on ice, to reduce larval locomotor activity (wandering), and larvae in each well were examined using a binocular stereomicroscope (Zeiss).
The water control group was used to determine baseline lethality. Results for neuropeptide analogues were calculated as % lethality in the remaining population after adjustment for the baseline. Results are shown in Tables 7 and 8 below, and in FIG. 1.

The test system of series [4] is bumblebees (Bombus terrestris). Put plainly: Bumblebee acute oral toxicity test. The class given is in vivo. The protocol: Oral toxicity against bumblebees (Bombus terrestris) was determined as previously described:
OECD (2017), Test No. 247: Bumblebee, Acute Oral Toxicity Test, OECD Guidelines for the Testing of Chemicals, Section 2, OECD Publishing, Paris, https://doi.org/10.1787/9789264284128-en.
Example data are provided for peptides, AH56, AH257, AH259 in Tables 4, 5 below. […]
Data were acquired for: feeding behaviour—weight of liquid consumed pre- and post-treatment; lethality (days).
There was no negative impact on feeding behaviour from capa peptides. Acute bumblebee toxicity was also assessed for other peptide candidates including: AH270, PEG270. Overall, capa peptides are bee safe.

[5] abbreviates: Table 11, individual bees, peptide 1 × 10 − 5M or Spirotetramat 25 uM, listed as AHPEG270.

In turn, “H-ASGLVAFPRV-NH2 [Capa-2, reference compound]” registered a lethality in the series on D. suzukii larvae (control ('sham') treatment, not baseline adjusted) of 38%.

In the case of H-Ahx-L-(Me)V-AFPRV-NH2 [AH283], the “Feeding Aphid, % lethality in population after adjustment for baseline” value (“Feeding Aphid, % lethality in population” for short) in the series with M. persicae [1] (10^−4 M) was 34%; in the series on M. persicae [1] (10^−5 M), 26%; in the series on M. persicae [1] (10^−5 M, @72 h), 12 (51%; in the series with M. persicae [1] (10^−6 M), 27%; in the series on M. persicae [1] (10^−7 M) it was 20%. The “Spray Aphid, % lethality in population after adjustment for baseline” value (from here on “Spray Aphid, % lethality in population”) is 30% in the series on Myzus persicae aphids (10^−4 M) and 20% with Myzus persicae aphids (10^−5 M). Further, the “M. persicae (% Lethality)” value in the series with M. persicae [2] (Peptide screening, Table 5) came out at 40%. Further, the “Feeding D. suzukii, % lethality in population after adjustment for baseline” value (shortened to “Feeding D. suzukii, % lethality”) in series [3] was found to be 43%. In addition, in series [3] (Peptide screening, Table 5, blank control 20.33), the “D. suzukii (Mean% Lethality ± SD)” value came to 42.63%. Also, the “D. suzukii (Sig Diff Grp)” value in series [3] (Peptide screening, Table 5, difference in survival) is recorded as “A”.

Regarding “H-LY-(Me)A-FARV-NH2 (H-LY[NMeA]FARV-NH2; SMILES CC(C)C[C@H](N)C(=O)N[C@@H](Cc1ccc(O)cc1)C(=O)N(C)[C@@H](C)C(=O)N[C@@H](Cc1ccccc1)C(=O)N[C@@H](C)C(=O)N[C@@H](CCCNC(=N)N)C(=O)N[C@H](C(N)=O)C(C)C) [AH382]”, in the series on D. suzukii larvae (72 hours treatment), the LD50 was 10^−6 M. In addition, the “% Lethality ± SEM” value in the series with D. suzukii larvae was 90 + 4%. In the series on M. persicae [1] (10^−5 M), the “Feeding Aphid, % lethality in population” value turned out to be 12%. Also, the “Spray Aphid, % lethality in population” value in the series with Myzus persicae aphids (10^−4 M) worked out at 49%; with Myzus persicae aphids (10^−5 M) it was 10%. In addition, the “Feeding D. suzukii, % lethality” value in series [3] is recorded as 43%.

For the substance “H-LY-Aib-FARV-NH2 (H-LY[Aib]FARV-NH2; SMILES CC(C)C[C@H](N)C(=O)N[C@@H](Cc1ccc(O)cc1)C(=O)NC(C)(C)C(=O)N[C@@H](Cc1ccccc1)C(=O)N[C@@H](C)C(=O)N[C@@H](CCCNC(=N)N)C(=O)N[C@H](C(N)=O)C(C)C) [AH387]”, the “Feeding Aphid, % lethality in population” value with M. persicae [1] (10^−5 M) is 14%. In addition, in the series with M. persicae [1] (10^−5 M, 60 h), the “Feeding Aphid, % lethality in population” value is given as 6 (35%. The “Spray Aphid, % lethality in population” value in the series on Myzus persicae aphids (10^−5 M) is on record as 12%. In addition, in the series with M. persicae [2], the mean lethality is reported as roughly 60% and the “lethality observed in one sample of 30 insects” value was determined as 90%. Besides, the “Feeding D. suzukii, % lethality” value in series [3] was 62%.

Consider “PEG-Ahx-LV-(Me)A-FPR-(Me)V-NH2 [PEGAH270, a pegylated form of peptide AH270]”, for which the “% Lethality ± SEM” value in the series with D. suzukii larvae is listed as 77 ± 4%. In the series with M. persicae [2], the mean lethality is reported as 40% and the “lethality observed in one sample of 30 insects” value was determined as 90%. In series [4] (Table 11, group mean, n=10), the “Liquid post exposure (weight), Mean” value is recorded as 0.8814 g and the “liquid consumed per day post exposure, Mean” value was found to be 0.2211 g. In addition, in series [4] (setting [5]), the “Liquid post exposure (weight)” value was 1.5744 g and 0.7150 g and 0.4326 g and 0.2731 g and 1.1763 g and 1.8061 g and 0.5676 g and 1.5696 g and 0.6889 g and 0.0102 g; the days alive was 4 days (9×) and 0 (approx 1 hr) days; the “liquid consumed per day post exposure” value was 0.3936 g and 0.1788 g and 0.1082 g and 0.0683 g and 0.2941 g and 0.4515 g and 0.1419 g and 0.3924 g and 0.1722 g and 0.0102 g. The “safety towards B. terrestris in the bumblebee oral toxicity assay” value in series [4] (in vivo, po) is on record as “safe”.
